According to ChEMBL document CHEMBL4507292 (2021):

What was measured:
[1] = target: Mitogen-activated protein kinase 14 (Homo sapiens, UniProt Q16539); test: NanoBRET (SGC Frankfurt) (MAPK14)
Oryctolagus cuniculus = species: Oryctolagus cuniculus; test: Inhibition of Purinergic P2X at 10 µM in the Eurofins-Panlabs radioligand binding assay (Eurofins_assay_268700); assay type: protein assay; details: Compound concentration 10.0 uM
[2] = target: hERG (KCNH2) potassium channel (Homo sapiens, UniProt Q12809); test: Inhibition of Potassium Channel hERG at 10 µM in the Eurofins-Panlabs radioligand binding assay (Eurofins_assay_265900); set-up: ligand concentration 1.5 nM, non-specific ligand with concentration Astemizole, incubation time 60 min, incubation temperature 25 °C; details: HEK-293 cells expressing human recombinant hERG, probe [3H] Astemizole, 1.5 nM, compound concentration 10 uM
Chain of hERG (KCNH2) potassium channel (Q12809 whole entry): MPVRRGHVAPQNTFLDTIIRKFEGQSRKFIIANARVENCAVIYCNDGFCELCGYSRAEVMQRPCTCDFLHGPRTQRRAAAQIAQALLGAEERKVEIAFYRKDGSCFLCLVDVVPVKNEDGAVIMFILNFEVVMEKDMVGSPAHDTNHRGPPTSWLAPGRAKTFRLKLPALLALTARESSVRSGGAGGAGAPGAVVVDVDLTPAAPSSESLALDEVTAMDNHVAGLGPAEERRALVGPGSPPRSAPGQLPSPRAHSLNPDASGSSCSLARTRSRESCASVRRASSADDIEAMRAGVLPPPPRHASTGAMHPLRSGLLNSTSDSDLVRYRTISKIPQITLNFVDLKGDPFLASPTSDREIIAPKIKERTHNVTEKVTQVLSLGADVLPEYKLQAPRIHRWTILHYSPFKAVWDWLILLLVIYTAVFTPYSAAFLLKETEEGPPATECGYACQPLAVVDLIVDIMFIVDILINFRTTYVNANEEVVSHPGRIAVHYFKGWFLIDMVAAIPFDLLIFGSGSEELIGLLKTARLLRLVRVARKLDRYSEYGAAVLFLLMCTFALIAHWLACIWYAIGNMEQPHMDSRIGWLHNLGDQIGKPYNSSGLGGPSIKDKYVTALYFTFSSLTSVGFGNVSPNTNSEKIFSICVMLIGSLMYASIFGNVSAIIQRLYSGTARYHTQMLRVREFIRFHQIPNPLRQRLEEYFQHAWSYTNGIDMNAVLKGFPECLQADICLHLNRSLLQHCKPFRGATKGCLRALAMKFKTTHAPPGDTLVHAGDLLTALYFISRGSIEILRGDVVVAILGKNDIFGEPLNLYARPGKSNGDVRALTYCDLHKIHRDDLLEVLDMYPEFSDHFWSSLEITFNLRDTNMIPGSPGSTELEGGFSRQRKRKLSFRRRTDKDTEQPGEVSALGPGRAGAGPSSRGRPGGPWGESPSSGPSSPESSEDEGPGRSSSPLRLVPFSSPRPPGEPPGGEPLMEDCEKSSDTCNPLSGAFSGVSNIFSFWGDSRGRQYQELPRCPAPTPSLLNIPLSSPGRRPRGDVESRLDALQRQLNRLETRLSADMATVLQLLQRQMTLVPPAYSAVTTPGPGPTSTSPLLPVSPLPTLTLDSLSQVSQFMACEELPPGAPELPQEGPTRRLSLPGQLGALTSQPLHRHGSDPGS

[3] = target: Somatostatin receptor type 4 (Homo sapiens, UniProt P31391); test: Somatostatin sst4 Eurofins-Panlabs radioligand binding assay; set-up: ligand concentration 0.1 nM, non-specific ligand with concentration 1 µM Somatostatin-14, incubation time 45 min, incubation temperature 25 °C
Chain of Somatostatin receptor type 4 (P31391 whole entry): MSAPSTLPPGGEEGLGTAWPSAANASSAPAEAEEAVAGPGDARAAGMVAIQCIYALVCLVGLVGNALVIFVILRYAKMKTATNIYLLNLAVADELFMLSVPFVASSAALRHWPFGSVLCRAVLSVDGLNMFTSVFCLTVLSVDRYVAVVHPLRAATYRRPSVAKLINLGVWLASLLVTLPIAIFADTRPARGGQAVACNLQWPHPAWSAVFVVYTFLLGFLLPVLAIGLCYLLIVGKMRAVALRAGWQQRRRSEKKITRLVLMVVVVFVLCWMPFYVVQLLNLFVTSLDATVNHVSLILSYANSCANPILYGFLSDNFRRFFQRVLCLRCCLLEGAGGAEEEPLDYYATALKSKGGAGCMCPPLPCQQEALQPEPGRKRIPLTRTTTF

Homo sapiens [4] = species: Homo sapiens; test: Inhibition of Nicotinic Acetylcholine at compound concentration of 10.0 uM in the Eurofins-Panlabs radioligand binding assay (Eurofins_assay_258590); assay type: protein-complex assay; details: Compound concentration 10.0 uM
[5] = target: Kappa-type opioid receptor (Homo sapiens, UniProt P41145); test: Inhibition of Opiate kappa (OP2, KOP) at compound concentration of 10.0 uM in the Eurofins-Panlabs radioligand binding assay (Eurofins_assay_260210); set-up: ligand concentration 0.6 nM, non-specific ligand with concentration 10 uM Naloxone, incubation time 60 min, incubation temperature 25 C
Chain of Kappa-type opioid receptor (P41145 whole entry): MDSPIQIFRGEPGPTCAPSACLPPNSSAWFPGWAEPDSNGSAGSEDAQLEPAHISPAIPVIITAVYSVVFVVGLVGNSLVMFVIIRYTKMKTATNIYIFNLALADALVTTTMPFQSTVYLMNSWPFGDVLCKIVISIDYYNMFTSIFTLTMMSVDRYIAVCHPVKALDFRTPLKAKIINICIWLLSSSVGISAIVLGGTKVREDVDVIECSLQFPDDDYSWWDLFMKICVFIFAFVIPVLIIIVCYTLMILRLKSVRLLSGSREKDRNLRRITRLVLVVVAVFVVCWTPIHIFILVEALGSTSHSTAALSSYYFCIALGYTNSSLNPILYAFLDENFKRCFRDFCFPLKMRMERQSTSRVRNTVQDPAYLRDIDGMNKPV

Homo sapiens [6] = species: Homo sapiens; test: (§1) Prostanoid, Thromboxane A2 (TP) Eurofins-Panlabs radioligand binding assay; set-up: ligand concentration 5 nM, non-specific ligand with concentration 1 µM SQ-29548, incubation time 30 min, incubation temperature 25 °C
[7] = as §1; set-up: species or system Homo sapiens; ligand concentration 5 nM, non-specific ligand with concentration 1 µM SQ-29548, incubation time 30 min, incubation temperature 25 °C
[8] = target: T1, 5-hydroxytryptamine receptor 3A (Homo sapiens) (UniProt P46098); test: Inhibition of Serotonin (5-Hydroxytryptamine) 5-HT3 at 10 µM in the Eurofins-Panlabs radioligand binding assay (Eurofins_assay_271910); set-up: ligand concentration 0.69 nM; details: Compound concentration 10.0 uM
T1 sequence (whole entry): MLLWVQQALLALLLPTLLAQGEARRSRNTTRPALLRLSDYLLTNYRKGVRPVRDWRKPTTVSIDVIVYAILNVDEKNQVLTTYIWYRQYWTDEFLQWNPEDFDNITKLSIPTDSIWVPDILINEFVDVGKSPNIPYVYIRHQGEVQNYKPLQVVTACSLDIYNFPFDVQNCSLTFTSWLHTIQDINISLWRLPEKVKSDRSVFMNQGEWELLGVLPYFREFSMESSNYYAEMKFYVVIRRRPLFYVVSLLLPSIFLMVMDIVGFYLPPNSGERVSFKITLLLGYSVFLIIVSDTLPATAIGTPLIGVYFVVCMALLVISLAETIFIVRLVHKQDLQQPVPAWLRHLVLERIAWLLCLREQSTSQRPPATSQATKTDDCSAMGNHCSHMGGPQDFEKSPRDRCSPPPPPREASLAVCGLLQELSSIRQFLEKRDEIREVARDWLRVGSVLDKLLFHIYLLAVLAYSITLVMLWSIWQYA

Rattus norvegicus = species: Rattus norvegicus; test: Serotonin (5-Hydroxytryptamine) 5-HT1, Non-Selective Eurofins-Panlabs radioligand binding assay; assay type: protein assay; details: concentration not given here
[9] = target: Beta-3 adrenergic receptor (Homo sapiens, UniProt P13945); test: Inhibition of Adrenergic beta3 at compound concentration of 10.0 uM in the Eurofins-Panlabs radioligand binding assay (Eurofins_assay_204200); set-up: ligand concentration 0.5 nM, non-specific ligand with concentration 1000 uM Alprenolol, incubation time 90 min, incubation temperature 25 C
Chain of Beta-3 adrenergic receptor (P13945 whole entry): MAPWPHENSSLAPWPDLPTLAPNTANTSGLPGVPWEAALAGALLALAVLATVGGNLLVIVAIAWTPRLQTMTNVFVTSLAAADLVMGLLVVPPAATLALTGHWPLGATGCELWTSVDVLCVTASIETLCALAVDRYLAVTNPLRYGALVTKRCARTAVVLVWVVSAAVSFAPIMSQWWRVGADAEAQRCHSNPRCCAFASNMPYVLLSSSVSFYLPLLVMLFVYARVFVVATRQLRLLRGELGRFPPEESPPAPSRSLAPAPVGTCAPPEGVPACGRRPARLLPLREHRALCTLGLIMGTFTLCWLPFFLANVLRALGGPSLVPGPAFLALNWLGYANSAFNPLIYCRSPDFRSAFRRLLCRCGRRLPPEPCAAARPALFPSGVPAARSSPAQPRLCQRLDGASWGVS

[10] = target: Gamma-aminobutyric acid type B receptor subunit 1 (Homo sapiens) (UniProt Q9UBS5); details: Rattus norvegicus; Compound concentration 10.0 uM
[11] = target: Interstitial collagenase (Homo sapiens) (UniProt P03956); test: Inhibition of Peptidase, Matrix Metalloproteinase-1 (MMP-1) at 10 µM in the Eurofins-Panlabs enzyme assay (Eurofins_assay_114110); details: Compound concentration 10.0 uM
[12] = target: D(3) dopamine receptor (Homo sapiens) (UniProt P35462)
Chain of D(3) dopamine receptor (Homo sapiens) (P35462 whole entry): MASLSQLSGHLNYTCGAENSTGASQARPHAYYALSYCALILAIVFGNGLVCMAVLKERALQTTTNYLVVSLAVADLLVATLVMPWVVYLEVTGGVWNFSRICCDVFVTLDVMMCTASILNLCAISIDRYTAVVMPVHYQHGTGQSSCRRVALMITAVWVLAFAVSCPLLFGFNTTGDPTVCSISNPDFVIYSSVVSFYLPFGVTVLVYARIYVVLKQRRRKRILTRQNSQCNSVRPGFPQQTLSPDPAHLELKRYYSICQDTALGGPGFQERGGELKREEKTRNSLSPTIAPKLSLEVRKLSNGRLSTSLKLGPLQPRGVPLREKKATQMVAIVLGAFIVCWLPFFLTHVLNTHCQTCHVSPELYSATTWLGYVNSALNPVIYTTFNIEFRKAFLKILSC

[13] = target: Neutrophil elastase (Homo sapiens) (UniProt P08246); test: Peptidase, ELA2 (Neutrophil Elastase 2) Eurofins-Panlabs enzyme assay; details: Compound concentration 30.0 uM
[14] = target: Nociceptin receptor (Homo sapiens) (UniProt P41146); test: Orphanin ORL1 Eurofins-Panlabs radioligand binding assay; details: Compound concentration 10.0 uM
[15] = target: Vasoactive intestinal polypeptide receptor 1 (Homo sapiens) (UniProt P32241); test: Inhibition of Vasoactive Intestinal Peptide VIP1 at 10 µM in the Eurofins-Panlabs radioligand binding assay (Eurofins_assay_287010); details: Compound concentration 10.0 uM
[16] = target: Melanocortin receptor 4 (Homo sapiens) (UniProt P32245); test: Inhibition of Melanocortin MC4 at 10 µM in the Eurofins-Panlabs radioligand binding assay (Eurofins_assay_251350); set-up: ligand concentration 0.02 nM; details: Compound concentration 10.0 uM
Chain of Melanocortin receptor 4 (Homo sapiens) (P32245 whole entry): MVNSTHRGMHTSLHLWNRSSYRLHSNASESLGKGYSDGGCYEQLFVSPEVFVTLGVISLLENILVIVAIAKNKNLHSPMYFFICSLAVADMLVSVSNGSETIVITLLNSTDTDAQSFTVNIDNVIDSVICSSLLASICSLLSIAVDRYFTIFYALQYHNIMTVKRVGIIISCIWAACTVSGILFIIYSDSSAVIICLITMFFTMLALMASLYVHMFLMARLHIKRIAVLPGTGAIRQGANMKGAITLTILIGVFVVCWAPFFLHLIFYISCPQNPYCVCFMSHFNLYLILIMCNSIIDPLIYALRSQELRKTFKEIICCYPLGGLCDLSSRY

[17] = target: monoamine oxidase B (MAO-B) (Homo sapiens, UniProt P27338); test: Inhibition of Monoamine Oxidase MAO-B at compound concentration of 10.0 uM in the Eurofins-Panlabs enzyme assay (Eurofins_assay_140120); set-up: substrate with concentration 50 uM Kynuramine, incubation time 60 min, incubation temperature 37 C; details: human recombinant MAO-B expressed in insect Hi5 cells, probe kynuramine, 50 uM, compound concentration 10 uM
[18] = target: Substance-P receptor (Homo sapiens) (UniProt P25103); test: Tachykinin NK1 Eurofins-Panlabs radioligand binding assay; details: Compound concentration 10.0 uM
Chain of Substance-P receptor (Homo sapiens) (P25103 whole entry): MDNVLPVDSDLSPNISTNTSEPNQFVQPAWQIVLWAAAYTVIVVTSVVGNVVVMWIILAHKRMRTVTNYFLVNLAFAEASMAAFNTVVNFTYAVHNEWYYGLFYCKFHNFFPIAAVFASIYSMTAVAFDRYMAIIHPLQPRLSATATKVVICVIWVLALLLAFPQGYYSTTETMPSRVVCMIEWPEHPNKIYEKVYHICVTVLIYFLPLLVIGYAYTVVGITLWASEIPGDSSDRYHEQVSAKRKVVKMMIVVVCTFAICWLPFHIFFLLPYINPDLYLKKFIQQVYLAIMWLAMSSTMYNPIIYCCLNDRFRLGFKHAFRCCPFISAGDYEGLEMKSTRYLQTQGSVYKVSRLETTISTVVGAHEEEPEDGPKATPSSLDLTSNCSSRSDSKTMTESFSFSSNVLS

[19] = target: Somatostatin receptor type 5 (Homo sapiens) (UniProt P35346); test: Somatostatin sst5 Eurofins-Panlabs radioligand binding assay; details: Compound concentration 10.0 uM
[20] = target: Melanocortin receptor 3 (Homo sapiens) (UniProt P41968); test: Inhibition of Melanocortin MC3 at 10 µM in the Eurofins-Panlabs radioligand binding assay (Eurofins_assay_251300); set-up: ligand concentration 0.035 nM; details: Compound concentration 10.0 uM
Chain of Melanocortin receptor 3 (Homo sapiens) (P41968 whole entry): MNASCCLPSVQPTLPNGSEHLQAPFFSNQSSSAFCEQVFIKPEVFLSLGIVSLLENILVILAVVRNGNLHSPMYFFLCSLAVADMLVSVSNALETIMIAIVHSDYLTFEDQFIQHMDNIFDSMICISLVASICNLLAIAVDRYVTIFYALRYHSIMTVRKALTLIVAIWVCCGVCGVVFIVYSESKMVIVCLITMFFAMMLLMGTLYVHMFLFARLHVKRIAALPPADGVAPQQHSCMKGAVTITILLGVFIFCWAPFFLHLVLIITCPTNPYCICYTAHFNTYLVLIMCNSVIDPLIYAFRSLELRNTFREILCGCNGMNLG

[21] = target: Adenosine receptor A2a (Homo sapiens) (UniProt P29274); details: Compound concentration 10.0 uM
Chain of Adenosine receptor A2a (Homo sapiens) (P29274 whole entry): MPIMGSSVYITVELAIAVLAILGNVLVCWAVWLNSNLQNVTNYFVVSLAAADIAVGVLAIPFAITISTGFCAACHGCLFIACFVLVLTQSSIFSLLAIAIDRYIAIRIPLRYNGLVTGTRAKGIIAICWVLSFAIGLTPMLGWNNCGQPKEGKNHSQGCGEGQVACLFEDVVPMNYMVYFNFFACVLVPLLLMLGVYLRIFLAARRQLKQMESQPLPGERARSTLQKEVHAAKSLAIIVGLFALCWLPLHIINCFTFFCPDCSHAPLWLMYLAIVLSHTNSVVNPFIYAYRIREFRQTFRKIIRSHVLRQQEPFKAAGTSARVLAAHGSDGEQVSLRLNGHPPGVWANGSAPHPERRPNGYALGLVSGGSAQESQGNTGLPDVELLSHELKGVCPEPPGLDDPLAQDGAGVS

[22] = target: monoamine oxidase A (MAO-A) (Homo sapiens, UniProt P21397); test: Inhibition of Monoamine Oxidase MAO-A at compound concentration of 10.0 uM in the Eurofins-Panlabs enzyme assay (Eurofins_assay_140010); set-up: substrate with concentration 50 uM Kynuramine, incubation time 60 min, incubation temperature 37 C; details: human recombinant MAO-A expressed in insect Hi5 cells, probe kynuramine, 50 uM, compound concentration 10 uM
Chain of monoamine oxidase A (MAO-A) (P21397 whole entry): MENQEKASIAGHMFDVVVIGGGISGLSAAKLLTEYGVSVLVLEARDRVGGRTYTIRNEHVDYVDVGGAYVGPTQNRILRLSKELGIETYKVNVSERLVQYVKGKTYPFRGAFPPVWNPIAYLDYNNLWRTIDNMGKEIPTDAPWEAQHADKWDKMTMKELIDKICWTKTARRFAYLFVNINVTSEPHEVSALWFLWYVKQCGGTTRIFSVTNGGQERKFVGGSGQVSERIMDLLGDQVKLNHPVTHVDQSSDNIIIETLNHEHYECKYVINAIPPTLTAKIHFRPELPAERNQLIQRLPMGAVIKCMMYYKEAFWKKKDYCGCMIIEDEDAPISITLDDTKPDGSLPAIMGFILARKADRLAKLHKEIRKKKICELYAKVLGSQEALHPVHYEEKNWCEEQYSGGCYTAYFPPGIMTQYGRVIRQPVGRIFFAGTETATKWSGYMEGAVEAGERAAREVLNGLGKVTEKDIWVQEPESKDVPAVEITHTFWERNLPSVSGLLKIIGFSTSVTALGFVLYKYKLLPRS

In the case of `O=C(O)c1cc(-c2ccc(C3CCNCC3)cc2)c2ccc(-c3ccc(C(F)(F)F)cc3)cc2c1` [PPTN], the IC50 [1] is reported as > 20 µM (not active), the inhibition (Oryctolagus cuniculus) is reported as 14% and the inhibition at 60 min, 10 µM [2] is reported as -6% (not active). The IC50 [3] was 5.3 µM, the inhibition ([3]; Compound concentration 0.01 uM) was -5% and the inhibition ([3]; Compound concentration 0.1 uM) was 7%. It also gave an inhibition ([3]; Compound concentration 1.0 uM) of 17%, an inhibition ([3]; Compound concentration 10.0 uM) of 65% and an inhibition (Homo sapiens [4]) of 0%. For the same compound, the IC50 [5] was 8.03 µM, the Ki [5] was 3.21 µM and the inhibition (Homo sapiens [6]; Compound concentration 0.01 uM) was 14%. For the same compound, the inhibition (Homo sapiens [6]; Compound concentration 0.1 uM) was -5%, the inhibition (Homo sapiens [6]; Compound concentration 1.0 uM) was 9% and the inhibition (Homo sapiens [6]; Compound concentration 10.0 uM) was 51%. It also gave an IC50 [7] of 9.5 µM, a Ki [7] of 6.2 µM and an inhibition [8] of 8%. It also gave an inhibition (Rattus norvegicus) of 5%, an IC50 [9] of 9.61 µM and a Ki [9] of 7.2 µM. For the same compound, the inhibition [10] was 3%, the inhibition [11] was -10% and the inhibition ([12]; Compound concentration 0.01 uM) was 3%. For the same compound, the inhibition ([12]; Compound concentration 0.1 uM) was 1%, the inhibition ([12]; Compound concentration 1.0 uM) was 12% and the inhibition ([12]; Compound concentration 10.0 uM) was 56%. It also gave an inhibition [13] of -4%, an inhibition [14] of 12% and an inhibition [15] of 3%. The inhibition [16] was 28%, the inhibition at 60 min, 10 µM [17] was 3% (not active) and the inhibition [18] was 1%. For the same compound, the inhibition [19] was 20%, the inhibition [20] was 34% and the inhibition [21] was 38%. For the same compound, the inhibition at 60 min, 10 µM [22] was 22% (not active).
